Reference: US9932349B2 (priority 2000, dated 2018)
“And” between values parts separate entries of the source, which are not always exact repeats. Equal values may be shown once. Read-outs that look alike come from different tables or passages of the source.

Legend:
κ opioid receptor = molecular target: T1, κ opioid receptor (Cavia porcellus, UniProt P41144); assay: biochemical; assay type: binding, guinea pig
T1 construct: determined in guinea pig brain cells; from tissue; host or cells: guinea pig brain
T1 sequence (P41144 whole entry): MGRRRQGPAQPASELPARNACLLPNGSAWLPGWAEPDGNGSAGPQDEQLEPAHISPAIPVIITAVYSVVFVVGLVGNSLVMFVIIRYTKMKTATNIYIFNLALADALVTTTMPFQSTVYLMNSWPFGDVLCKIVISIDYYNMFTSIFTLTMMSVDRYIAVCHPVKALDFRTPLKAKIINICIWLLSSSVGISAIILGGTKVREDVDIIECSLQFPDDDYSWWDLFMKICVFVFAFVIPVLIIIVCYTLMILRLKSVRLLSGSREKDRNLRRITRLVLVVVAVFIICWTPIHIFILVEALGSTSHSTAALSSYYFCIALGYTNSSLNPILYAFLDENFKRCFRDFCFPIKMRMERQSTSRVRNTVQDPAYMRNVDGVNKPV

δ opioid receptor = molecular target: T2, δ opioid receptor (Cavia porcellus, UniProt A0A286XTF2); assay: biochemical; assay type: binding, guinea pig
T2 construct: determined in guinea pig brain cells; from tissue; host or cells: guinea pig brain
T2 sequence (A0A286XTF2 1-366): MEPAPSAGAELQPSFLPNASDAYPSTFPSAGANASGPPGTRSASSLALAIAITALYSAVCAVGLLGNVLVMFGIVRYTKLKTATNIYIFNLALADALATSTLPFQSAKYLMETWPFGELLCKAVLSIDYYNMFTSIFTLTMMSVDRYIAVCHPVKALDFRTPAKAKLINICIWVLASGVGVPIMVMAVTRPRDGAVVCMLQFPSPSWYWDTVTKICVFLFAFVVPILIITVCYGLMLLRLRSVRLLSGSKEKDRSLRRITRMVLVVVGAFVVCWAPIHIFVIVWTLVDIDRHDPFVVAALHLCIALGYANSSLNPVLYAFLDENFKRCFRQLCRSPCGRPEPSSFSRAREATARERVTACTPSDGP

mice = assay: mouse acetic acid writhing test (antinociceptive activity); assay type: in vivo
human δ opioid receptor = molecular target: T3, human δ opioid receptor (Homo sapiens, UniProt P41143); assay: binding to cloned human receptor in CHO cell membranes, [3H]Naltrindole
T3 construct: expressed in transfected cells; host or cells: Chinese hamster ovary (CHO) cells
T3 sequence (P41143 whole entry): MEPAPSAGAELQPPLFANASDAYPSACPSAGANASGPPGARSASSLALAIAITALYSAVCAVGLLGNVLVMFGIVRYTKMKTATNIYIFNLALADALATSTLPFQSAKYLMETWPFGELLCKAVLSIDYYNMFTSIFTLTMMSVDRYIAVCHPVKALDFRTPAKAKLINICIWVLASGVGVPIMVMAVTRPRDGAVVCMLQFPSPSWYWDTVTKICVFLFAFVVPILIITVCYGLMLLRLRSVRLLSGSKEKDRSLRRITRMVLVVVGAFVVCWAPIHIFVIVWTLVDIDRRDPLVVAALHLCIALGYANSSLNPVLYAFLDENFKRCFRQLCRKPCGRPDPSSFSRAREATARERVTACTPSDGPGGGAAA
Method: The affinities of the compounds of the invention were determined in guinea pig brain cells by the method described in Wentland et al. Biorgan. Med. Chem. Lett. 9. […] CHO cell membranes, expressing the human μ, δ, or κ opioid receptor, were incubated with 12 different concentrations of the compounds in the presence of receptor-specific radioligands at 25° C., in a final volume of 1 ml of 50 mM Tris-HCl, pH 7.5. Nonspecific binding was determined using 1 μM naloxone. Data are the mean value ±S.E.M. from three experiments, performed in triplicate.

human μ opioid receptor = molecular target: T4, human μ opioid receptor (Homo sapiens, UniProt P35372); assay: biochemical; assay type: binding
T4 construct: expressed in transfected cells; host or cells: Chinese hamster ovary (CHO) cells
T4 sequence (P35372 whole entry): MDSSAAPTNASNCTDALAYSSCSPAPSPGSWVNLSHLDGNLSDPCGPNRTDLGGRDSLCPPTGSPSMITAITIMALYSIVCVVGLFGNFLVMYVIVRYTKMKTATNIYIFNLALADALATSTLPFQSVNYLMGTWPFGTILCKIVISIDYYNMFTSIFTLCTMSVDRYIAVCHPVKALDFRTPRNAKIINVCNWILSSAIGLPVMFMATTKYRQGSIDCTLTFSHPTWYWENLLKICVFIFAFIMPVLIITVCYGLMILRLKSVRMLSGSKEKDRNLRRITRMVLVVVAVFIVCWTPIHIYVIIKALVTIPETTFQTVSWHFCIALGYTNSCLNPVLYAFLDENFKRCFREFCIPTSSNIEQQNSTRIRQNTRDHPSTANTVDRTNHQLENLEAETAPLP

human κ opioid receptor = molecular target: T5, human κ opioid receptor (Homo sapiens, UniProt P41145); assay: biochemical; assay type: binding
T5 construct: expressed in transfected cells; host or cells: Chinese hamster ovary (CHO) cells
T5 sequence (P41145 whole entry): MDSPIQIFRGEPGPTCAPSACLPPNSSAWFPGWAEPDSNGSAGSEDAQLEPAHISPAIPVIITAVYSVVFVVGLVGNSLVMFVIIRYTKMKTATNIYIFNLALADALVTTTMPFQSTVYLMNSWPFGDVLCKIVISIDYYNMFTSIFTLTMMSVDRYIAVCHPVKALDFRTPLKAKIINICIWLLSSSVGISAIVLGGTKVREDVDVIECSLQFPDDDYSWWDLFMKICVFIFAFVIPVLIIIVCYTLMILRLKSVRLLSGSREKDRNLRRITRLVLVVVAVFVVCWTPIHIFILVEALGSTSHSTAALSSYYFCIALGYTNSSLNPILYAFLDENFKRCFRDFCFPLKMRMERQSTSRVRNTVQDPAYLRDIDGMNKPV

μ opioid receptor = μ opioid receptor (Cavia porcellus, UniProt A0ACM8Q262); assay type: binding, guinea pig
Chain of μ opioid receptor (A0ACM8Q262 1-400): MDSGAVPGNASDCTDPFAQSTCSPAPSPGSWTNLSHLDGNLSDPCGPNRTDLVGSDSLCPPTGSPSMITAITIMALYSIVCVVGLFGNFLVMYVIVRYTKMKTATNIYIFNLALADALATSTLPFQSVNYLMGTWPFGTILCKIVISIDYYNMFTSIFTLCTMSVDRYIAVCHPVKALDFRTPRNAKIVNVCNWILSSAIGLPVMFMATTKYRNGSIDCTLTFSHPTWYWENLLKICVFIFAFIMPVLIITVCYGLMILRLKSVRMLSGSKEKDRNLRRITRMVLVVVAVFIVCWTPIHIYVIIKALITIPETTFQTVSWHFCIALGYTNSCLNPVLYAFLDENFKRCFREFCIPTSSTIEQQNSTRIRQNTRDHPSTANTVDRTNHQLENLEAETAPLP

[1] = read-out: Ki [3H] Naltrindole (δ)

C[C@H]1[C@H]2Cc3ccc(O)cc3[C@]1(C)CCN2CC1CC1 [(−)-Cyclazocine, Cyclazocine, reference compound]
Ki (κ opioid receptor; read-out: [3H]U69,593 (κ)): 0.052 ± 0.009 nM | Ki (δ opioid receptor; read-out: [3H] Naltrindole (δ)): 0.58 ± 0.06 nM

C[C@H]1[C@H]2Cc3ccc(C(=O)NCCCN(C)C)cc3[C@]1(C)CCN2CC1CC1 (racemic) [Example 12]
Ki (κ opioid receptor; Ki [3H] U69,593 (κ)): 310 ± 64 nM | Ki (δ opioid receptor; Ki [3H] Naltrindole (δ)): 3000 ± 230 nM

COc1ccc(CNC(=O)c2ccc3c(c2)[C@]2(C)CCN(CC4CC4)[C@H](C3)[C@@H]2C)cc1 (racemic) [Example 10]
Ki (κ opioid receptor; Ki [3H] U69,593 (κ)): 110 ± 3.1 nM | Ki (δ opioid receptor; Ki [3H] Naltrindole (δ)): 150 ± 17 nM

CC1C2Cc3ccc(C(N)=O)cc3C1(C)CCN2CC1CC1 (single isomer, unassigned) [Example 4a]
Ki (δ opioid receptor; Ki [3H] Naltrindole (δ)): 2.6 ± 0.6 nM

C[C@H]1C2Cc3ccc(C#N)cc3[C@@]1(C)CCN2CC1CC1 (racemic) [Example 1, (±)-3-(Cyclopropylmethyl)-1,2,3,4,5,6-hexahydro-cis-6,11-dimethyl-2,6-methano-3-benzazocin-8-carbonitrile]
Ki (κ opioid receptor; Ki [3H] U69,593 (κ)): 71 ± 13 nM | Ki (δ opioid receptor; Ki [3H] Naltrindole (δ)): 2700 ± 1400 nM

C[C@H]1[C@H]2Cc3ccc(O)cc3[C@]1(C)CCN2CC1CC1 [(+)-Cyclazocine, Cyclazocine, reference compound]
Ki (κ opioid receptor; read-out: [3H]U69,593 (κ)): 76 ± 8.2 nM | Ki (δ opioid receptor; read-out: [3H] Naltrindole (δ)): 1100 ± 63 nM

C[C@H]1[C@H]2Cc3ccc(CN)cc3[C@]1(C)CCN2C[C@@H]1CCCO1 [Example 29]
Ki (κ opioid receptor; [3H] U69,593 (κ)): 18 ± 1.9 nM | Ki (δ opioid receptor; [3H] Naltrindole (δ)): 300 ± 27 nM

C[C@H]1C2Cc3ccc(C(N)=S)cc3[C@@]1(C)CCN2CC1CC1 (racemic) [Example 5, (±)-3-(Cyclopropylmethyl)-1,2,3,4,5,6-hexahydro-cis-6,11-dimethyl-2,6-methano-3-benzazocin-8-thiocarboxamide]
Ki (κ opioid receptor; Ki [3H] U69,593 (κ)): 0.67 ± 0.01 nM | Ki (δ opioid receptor; Ki [3H] Naltrindole (δ)): 4 ± 0.48 nM

CC1C2Cc3ccc(NC=O)cc3C1(C)CCN2CC1CC1 (mixture of isomers) [Example 19, (±)-N-[3-(Cyclopropylmethyl)-1,2,3,4,5,6,-hexahydro-cis-6,11-dimethyl-2,6-methano-3-benzazocin-8-yl]-formamide]
Ki (κ opioid receptor; read-out: Ki [3H] U69,593 (κ)): 0.85 ± 0.08 nM | Ki (δ opioid receptor; [1]): 37 ± 3.9 nM

CC1C2Cc3ccc(O)cc3C1(C)CCN2CC1CCCO1 (single isomer, unassigned) [Example 27, reference compound]
Ki (κ opioid receptor; [3H] U69,593 (κ)): 1.5 ± 0.07 nM | Ki (δ opioid receptor; [3H] Naltrindole (δ)): 67 ± 4.3 nM

CC[C@@]12CCN(CC3CC3)C(C(=O)c3ccc(O)cc31)C2C (mixture of isomers) [(±)-EKC, Ethylketocyclazocine, reference compound]
Ki (δ opioid receptor; [3H] Naltrindole (δ)): 3.4 ± 0.41 nM

COC(=O)c1ccc2c(c1)[C@@]1(C)CCN(CC3CC3)C(C2)[C@@H]1C (racemic) [Example 3, (±)-3-(Cyclopropylmethyl)-1,2,3,4,5,6,-hexahydro-cis-6,11-dimethyl-2,6-methano-3-benzazocin-8-carboxylic acid methyl ester]
Ki (κ opioid receptor; Ki [3H] U69,593 (κ)): 2 ± 0.21 nM | Ki (δ opioid receptor; Ki [3H] Naltrindole (δ)): 59 ± 2.1 nM

C[C@H]1C2Cc3ccc(C(N)=O)cc3[C@@]1(C)CCN2CC1CC1 (racemic) [Example 4, (±)-3-(Cyclopropylmethyl)-1,2,3,4,5,6-hexahydro-cis-6,11-dimethyl-2,6-methano-3-benzazocin-8-carboxamide]
Ki (δ opioid receptor; Ki [3H] Naltrindole (δ)): 8.3 nM and 4.9 nM | duration of action (antinociception, mouse writhing test) (mice; 1.0 mg/kg i.p.): 15 h | ED50 in the mouse acetic acid writhing test (mice; administered i.c.v.): 0.21 nmol

C[C@H]1C2Cc3ccc(CO)cc3[C@@]1(C)CCN2CC1CC1 (racemic) [Example 16, (±)-[3-(Cyclopropylmethyl)-1,2,3,4,5,6,-hexahydro-cis-6,11-dimethyl-2,6-methano-3-benzazocin-8-yl]-methanol]
Ki (κ opioid receptor; Ki [3H] U69,593 (κ)): 7.6 ± 0.8 nM | Ki (δ opioid receptor; Ki [3H] Naltrindole (δ)): 210 ± 29 nM

CC1[C@@H]2Cc3ccc(C(=N)NO)cc3[C@@]1(C)CCN2CC1CC1 (mixture of isomers) [Example 14, (±)-3-(Cyclopropylmethyl)-1,2,3,4,5,6-hexahydro-N-hydroxy-cis-6,11-dimethyl-2,6-methano-3-benzazocin-8-carboxamidine]
Ki (κ opioid receptor; Ki [3H] U69,593 (κ)): 0.9 ± 0.15 nM | Ki (δ opioid receptor; Ki [3H] Naltrindole (δ)): 16 ± 0.67 nM

CCC12CCN(CC3CC3)C(C(=O)c3ccc(NC=O)cc31)C2C (stereo not shown) [Example 40]
Ki (κ opioid receptor; read-out: [3H] U69,593 (κ)): 1.2 ± 0.11 nM | Ki (δ opioid receptor; read-out: [3H] Naltrindole (δ)): 52 ± 3.4 nM

CC1C2Cc3ccc(NC=S)cc3C1(C)CCN2CC1CC1 (stereo not shown) [Example 20]
Ki (κ opioid receptor; Ki [3H] U69,593 (κ)): 0.63 ± 0.15 nM | Ki (δ opioid receptor; Ki [3H] Naltrindole (δ)): 16 ± 0.3 nM

CC1C2C(=O)c3ccc(O)cc3[C@@]1(C)CCN2CC1CC1 (mixture of isomers) [(±)-ketocyclazocine, Ketocyclazocine, reference compound]
Ki (human δ opioid receptor): 130 ± 14 nM | Ki (human μ opioid receptor): 1.7 ± 0.21 nM | Ki (κ opioid receptor; [3H] U69,593 (κ)): 1 ± 0.24 nM | Ki (δ opioid receptor; [3H] Naltrindole (δ)): 20 ± 2.7 nM | Ki (human κ opioid receptor): 1 ± 0.019 nM

NC(=O)c1ccc2c3c1OC1C(=O)CCC4(O)C(C2)N(CC2CC2)CCC314 (stereo not shown) [Example 32]
Ki (κ opioid receptor; read-out: [3H] U69,593 (κ)): 22 ± 0.85 nM | Ki (δ opioid receptor; read-out: [3H] Naltrindole (δ)): 110 ± 8.1 nM | Ki (μ opioid receptor; read-out: [3H] DAMGO (μ)): 1.9 ± 0.21 nM

CCOC(=O)c1ccc2c3c1OC1C(=O)CCC4(O)C(C2)N(CC2CC2)CCC314 (stereo not shown) [Example 33]
Ki (κ opioid receptor; read-out: [3H] U69,593 (κ)): 16 ± 0.7 nM | Ki (δ opioid receptor; read-out: [3H] Naltrindole (δ)): 970 ± 155 nM | Ki (μ opioid receptor; read-out: [3H] DAMGO (μ)): 24 ± 1.7 nM

Oc1ccc2c(c1)C13CCCCC1(O)C(C2)N(CC1CCC1)CC3 (stereo not shown) [butorphanol, Butorphanol, reference compound]
Ki (human δ opioid receptor): 12 ± 3.8 nM | Ki (human κ opioid receptor): 0.22 ± 0.023 nM

Oc1ccc2c3c1O[C@H]1c4[nH]c5ccccc5c4C[C@@]4(O)[C@@H](C2)N(CC2CC2)CC[C@]314 [naltrindole (3-OH), Naltrindole, reference compound]
Ki (κ opioid receptor; [3H] U69,593 (κ)): 4.6 ± 0.23 nM

CC1C2Cc3ccc(C(N)=O)cc3C1(C)CCN2CC1CCCO1 (single isomer, unassigned) [Example 26]
Ki (κ opioid receptor; [3H] U69,593 (κ)): 0.089 ± 0.004 nM | Ki (δ opioid receptor; [3H] Naltrindole (δ)): 2 ± 0.15 nM

CC1C2Cc3ccc(NC(N)=O)cc3C1(C)CCN2CC1CC1 (racemic) [Example 36]
Ki (κ opioid receptor; read-out: Ki [3H] U69,593 (κ)): 15 ± 1.4 nM | Ki (δ opioid receptor; [1]): 90 ± 12 nM | Ki (μ opioid receptor; read-out: Ki [3H] DAMGO (μ)): 20 ± 0.66 nM
